Test system: 519858-162-T-J1-PDC complex spheroid growth, % test/control
Test: Anticancer human tumor 519858-162-T-J1-PDC patient-derived colon adenocarcinoma cell line growth inhibition [Asc]
Details: for IC50: curve of first compound; for viability, T/C: stronger effect = lower value
Method in brief: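 Tumor cells were grown as multicellular spheroids with stromal HUVEC and mesenchymal stem cells and treated singly or in combination. Concentrations fell in half-log steps from the clinical Cmax, or from 10 microM where none was known.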

[1] = second compound 0.00949 µM, first compound 0.0316 µM
[2] = second compound 0.00949 µM, first compound 0.1 µM
[3] = second compound 0.00949 µM, first compound 0.316 µM
[4] = second compound 0.00949 µM, first compound 1 µM
[5] = second compound 0.00949 µM, first compound 3.16 µM
[6] = second compound 0.00949 µM, first compound 10 µM
[7] = second compound 0.03 µM, first compound 0.0316 µM
[8] = second compound 0.03 µM, first compound 0.1 µM
[9] = second compound 0.03 µM, first compound 0.316 µM
[10] = second compound 0.03 µM, first compound 1 µM
[11] = second compound 0.03 µM, first compound 3.16 µM
[12] = second compound 0.03 µM, first compound 10 µM
[13] = second compound 0.0949 µM, first compound 0.0316 µM
[14] = second compound 0.0949 µM, first compound 0.1 µM
[15] = second compound 0.0949 µM, first compound 0.316 µM
[16] = second compound 0.0949 µM, first compound 1 µM
[17] = second compound 0.0949 µM, first compound 3.16 µM
[18] = second compound 0.0949 µM, first compound 10 µM
[19] = second compound 0.3 µM, first compound 0.0316 µM
[20] = second compound 0.3 µM, first compound 0.1 µM
[21] = second compound 0.3 µM, first compound 0.316 µM
[22] = second compound 0.3 µM, first compound 1 µM
[23] = second compound 0.3 µM, first compound 3.16 µM
[24] = second compound 0.3 µM, first compound 10 µM
[25] = second compound 0.949 µM, first compound 0.0316 µM
[26] = second compound 0.949 µM, first compound 0.1 µM
[27] = second compound 0.949 µM, first compound 0.316 µM
[28] = second compound 0.949 µM, first compound 1 µM
[29] = second compound 0.949 µM, first compound 3.16 µM
[30] = second compound 0.949 µM, first compound 10 µM
[31] = second compound 3 µM, first compound 0.0316 µM
[32] = second compound 3 µM, first compound 0.1 µM
[33] = second compound 3 µM, first compound 0.316 µM
[34] = second compound 3 µM, first compound 1 µM
[35] = second compound 3 µM, first compound 3.16 µM
[36] = second compound 3 µM, first compound 10 µM
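Also: seven day drug exposure begun three days after spheroid seeding.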
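For viability, T/C in this document: 100% = DMSO vehicle wells and lower values mean less viable spheroid.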

SMILES: C=C(F)C(=O)N1CCN(c2nc(OCC3CCCN3C)nc3c2CCN(c2cccc4cccc(Cl)c24)C3)CC1CC#N (stereo unspecified) + CCN1C(C(=O)NC23CCC(C(=O)O)(CC2)CC3)C(c2cccc(Cl)c2F)C2(C(=O)Nc3cc(Cl)ccc32)C12CCCCC2
- IC50 (second compound 0.00949 µM): 7.46 µM
- IC50 (second compound 0.03 µM): > 10 µM
- IC50 (second compound 0.0949 µM): > 10 µM
- IC50 (second compound 0.3 µM): 9.03 µM
- IC50 (second compound 0.949 µM): 4.55 µM
- IC50 (second compound 3 µM): 2.79 µM
- viability, T/C [1]: 114%
- viability, T/C [2]: 80.6%
- viability, T/C [3]: 84.5%
- viability, T/C [4]: 96.3%
- viability, T/C [5]: 71.7%
- viability, T/C [6]: 41.4%
- viability, T/C [7]: 102%
- viability, T/C [8]: 84%
- viability, T/C [9]: 78.4%
- viability, T/C [10]: 84.3%
- viability, T/C [11]: 71.9%
- viability, T/C [12]: 52.5%
- viability, T/C [13]: 126%
- viability, T/C [14]: 110%
- viability, T/C [15]: 76.2%
- viability, T/C [16]: 102%
- viability, T/C [17]: 84.7%
- viability, T/C [18]: 41.6%
- viability, T/C [19]: 81%
- viability, T/C [20]: 73.8%
- viability, T/C [21]: 97.7%
- viability, T/C [22]: 90.5%
- viability, T/C [23]: 79.7%
- viability, T/C [24]: 47.2%
- viability, T/C [25]: 95.5%
- viability, T/C [26]: 76.6%
- viability, T/C [27]: 96.7%
- viability, T/C [28]: 86.3%
- viability, T/C [29]: 58.1%
- viability, T/C [30]: 32.4%
- viability, T/C [31]: 74.7%
- viability, T/C [32]: 81%
- viability, T/C [33]: 82.7%
- viability, T/C [34]: 70%
- viability, T/C [35]: 47.8%
- viability, T/C [36]: 26.2%

SMILES: C=CC(=O)N1CCN(c2nc(=O)n(-c3c(C)ccnc3C(C)C)c3nc(-c4c(O)cccc4F)c(F)cc23)C(C)C1 (stereo unspecified) + CCN1C(C(=O)NC23CCC(C(=O)O)(CC2)CC3)C(c2cccc(Cl)c2F)C2(C(=O)Nc3cc(Cl)ccc32)C12CCCCC2
- IC50 (second compound 0.00949 µM): > 10 µM
- IC50 (second compound 0.03 µM): > 10 µM
- IC50 (second compound 0.0949 µM): > 10 µM
- IC50 (second compound 0.3 µM): > 10 µM
- IC50 (second compound 0.949 µM): > 10 µM
- IC50 (second compound 3 µM): > 10 µM
- viability, T/C [1]: 147%
- viability, T/C [2]: 110%
- viability, T/C [3]: 97.8%
- viability, T/C [4]: 108%
- viability, T/C [5]: 99.4%
- viability, T/C [6]: 82%
- viability, T/C [7]: 112%
- viability, T/C [8]: 87.7%
- viability, T/C [9]: 115%
- viability, T/C [10]: 91.9%
- viability, T/C [11]: 75.2%
- viability, T/C [12]: 79.7%
- viability, T/C [13]: 92.7%
- viability, T/C [14]: 106%
- viability, T/C [15]: 85.3%
- viability, T/C [16]: 99.5%
- viability, T/C [17]: 89.6%
- viability, T/C [18]: 87.8%
- viability, T/C [19]: 88.7%
- viability, T/C [20]: 89.3%
- viability, T/C [21]: 112%
- viability, T/C [22]: 90%
- viability, T/C [23]: 106%
- viability, T/C [24]: 116%
- viability, T/C [25]: 114%
- viability, T/C [26]: 78.7%
- viability, T/C [27]: 111%
- viability, T/C [28]: 70.8%
- viability, T/C [29]: 86.1%
- viability, T/C [30]: 70%
- viability, T/C [31]: 86.9%
- viability, T/C [32]: 81.7%
- viability, T/C [33]: 87%
- viability, T/C [34]: 75.1%
- viability, T/C [35]: 74.9%
- viability, T/C [36]: 91.7%

SMILES: COc1c(OCCCN2CCOCC2)ccc2c3n(c(=NC(=O)c4cnc(N)nc4)nc12)CCN3 + CCN1C(C(=O)NC23CCC(C(=O)O)(CC2)CC3)C(c2cccc(Cl)c2F)C2(C(=O)Nc3cc(Cl)ccc32)C12CCCCC2
- IC50 (second compound 0.00949 µM): > 1 µM
- IC50 (second compound 0.03 µM): > 1 µM
- IC50 (second compound 0.0949 µM): > 1 µM
- IC50 (second compound 0.3 µM): 0.749 µM
- IC50 (second compound 0.949 µM): 0.301 µM
- IC50 (second compound 3 µM): > 1 µM
- viability, T/C (second compound 0.00949 µM, first compound 0.00316 µM): 75.5%
- viability, T/C (second compound 0.00949 µM, first compound 0.01 µM): 130%
- viability, T/C [1]: 88.6%
- viability, T/C [2]: 80.3%
- viability, T/C [3]: 70.8%
- viability, T/C [4]: 53%
- viability, T/C (second compound 0.03 µM, first compound 0.00316 µM): 95.3%
- viability, T/C (second compound 0.03 µM, first compound 0.01 µM): 93.1%
- viability, T/C [7]: 89.3%
- viability, T/C [8]: 80.3%
- viability, T/C [9]: 81.6%
- viability, T/C [10]: 57.3%
- viability, T/C (second compound 0.0949 µM, first compound 0.00316 µM): 86.8%
- viability, T/C (second compound 0.0949 µM, first compound 0.01 µM): 80.3%
- viability, T/C [13]: 98.1%
- viability, T/C [14]: 77.2%
- viability, T/C [15]: 64.2%
- viability, T/C [16]: 55.9%
- viability, T/C (second compound 0.3 µM, first compound 0.00316 µM): 89.8%
- viability, T/C (second compound 0.3 µM, first compound 0.01 µM): 73.2%
- viability, T/C [19]: 80.2%
- viability, T/C [20]: 84.3%
- viability, T/C [21]: 56.2%
- viability, T/C [22]: 47.9%
- viability, T/C (second compound 0.949 µM, first compound 0.00316 µM): 69.6%
- viability, T/C (second compound 0.949 µM, first compound 0.01 µM): 91.1%
- viability, T/C [25]: 91%
- viability, T/C [26]: 47.5%
- viability, T/C [27]: 60.8%
- viability, T/C [28]: 32.1%
- viability, T/C (second compound 3 µM, first compound 0.00316 µM): 78.4%
- viability, T/C (second compound 3 µM, first compound 0.01 µM): 86%
- viability, T/C [31]: 80.6%
- viability, T/C [32]: 57.6%
- viability, T/C [33]: 60.2%
- viability, T/C [34]: 50.4%
